{"source": "ChEMBL document CHEMBL2440005", "about": "“Discovery and structure-activity relationships of 6-(benzoylamino)benzoxaboroles as orally active anti-inflammatory agents” (Bioorg Med Chem Lett, 2013)", "key": {"[1]": {"biological_target": "Mitogen-activated protein kinase 11 (Homo sapiens) (UniProt Q15759)", "sequence (Q15759 whole entry)": "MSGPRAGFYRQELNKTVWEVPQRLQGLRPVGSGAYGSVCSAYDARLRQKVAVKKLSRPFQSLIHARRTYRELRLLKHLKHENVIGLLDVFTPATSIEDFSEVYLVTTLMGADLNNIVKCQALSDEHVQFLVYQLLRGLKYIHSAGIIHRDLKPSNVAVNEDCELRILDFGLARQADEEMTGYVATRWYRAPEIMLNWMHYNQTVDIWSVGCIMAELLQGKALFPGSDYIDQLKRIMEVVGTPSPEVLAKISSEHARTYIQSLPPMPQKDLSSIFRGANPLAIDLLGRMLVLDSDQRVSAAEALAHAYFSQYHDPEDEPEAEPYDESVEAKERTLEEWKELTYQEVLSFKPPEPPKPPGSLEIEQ", "experiment": "Inhibition of p38beta (unknown origin) at 30 uM"}, "[2]": {"biological_target": "MAP kinase-activated protein kinase 5 (Homo sapiens) (UniProt Q8IW41)", "experiment": "Inhibition of MAPKAPK5 (unknown origin) at 30 uM"}, "[3]": {"biological_target": "Tyrosine-protein kinase JAK2 (Homo sapiens) (UniProt O60674)", "experiment": "Inhibition of JAK2 (unknown origin) at 30 uM"}, "Mus musculus [4]": {"system": "Mus musculus", "experiment": "Antiinflammatory activity in mouse assessed as inhibition of LPS-induced TNF-alpha production at 30 mg/kg, po administered 1 hr prior to LPS challenge measured after 1 hr", "assay_type": "functional"}, "[5]": {"experiment": "AUC (0 to 24 hrs) in mouse at 4 mg/kg, po", "assay_type": "ADME, organism-based", "set-up": "time < 24 hr, dose 4 mg/kg, route oral", "details": "plasma"}, "[6]": {"biological_target": "Tyrosine-protein kinase JAK1 (Homo sapiens) (UniProt P23458)", "experiment": "Inhibition of JAK1 (unknown origin) at 30 uM"}, "[7]": {"biological_target": "Rho-associated protein kinase 1 (Homo sapiens) (UniProt Q13464)", "experiment": "Inhibition of ROCK1 (unknown origin) at 30 uM"}, "Mus musculus [8]": {"system": "Mus musculus", "experiment": "Antiinflammatory activity in mouse assessed as inhibition of LPS-induced IL-6 production at 30 mg/kg, po administered 1 hr prior to LPS challenge measured after 1 hr", "assay_type": "functional"}, "Mus musculus [9]": {"system": "Mus musculus", "experiment": "Toxicity in mouse assessed as change in body weight at 30 mg/kg, po qd administered every other day for 20 days relative to untreated control", "assay_type": "organism-based", "set-up": "dose 30 mg/kg, route oral", "details": "in vivo, 480 h"}, "[10]": {"biological_target": "Tyrosine-protein kinase JAK3 (Homo sapiens) (UniProt P52333)", "experiment": "Inhibition of JAK3 (unknown origin) at 30 uM"}, "[11]": {"experiment": "Clearance in mouse at 2 mg/kg, iv", "assay_type": "ADME, organism-based", "set-up": "dose 2 mg/kg, route intravenous", "details": "in vivo"}, "[12]": {"biological_target": "Mitogen-activated protein kinase 8 (Homo sapiens) (UniProt P45983)", "sequence (P45983 whole entry)": "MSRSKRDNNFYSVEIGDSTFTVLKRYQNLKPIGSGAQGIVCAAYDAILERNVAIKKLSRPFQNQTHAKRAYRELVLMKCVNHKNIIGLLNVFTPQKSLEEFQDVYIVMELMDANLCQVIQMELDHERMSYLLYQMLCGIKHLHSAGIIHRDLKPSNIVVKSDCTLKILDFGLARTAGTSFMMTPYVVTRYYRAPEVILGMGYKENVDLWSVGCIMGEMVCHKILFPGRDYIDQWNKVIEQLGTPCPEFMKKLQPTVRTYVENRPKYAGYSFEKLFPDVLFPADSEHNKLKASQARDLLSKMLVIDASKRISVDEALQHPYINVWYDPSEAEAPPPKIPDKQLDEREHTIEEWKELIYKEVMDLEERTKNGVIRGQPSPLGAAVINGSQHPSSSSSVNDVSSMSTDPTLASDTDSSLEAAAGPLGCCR", "experiment": "Inhibition of JNK1 (unknown origin) at 30 uM"}, "[13]": {"biological_target": "Phosphatidylinositol 4,5-bisphosphate 3-kinase catalytic subunit alpha isoform (Homo sapiens) (UniProt P42336)", "sequence (P42336 whole entry, canonical isoform)": "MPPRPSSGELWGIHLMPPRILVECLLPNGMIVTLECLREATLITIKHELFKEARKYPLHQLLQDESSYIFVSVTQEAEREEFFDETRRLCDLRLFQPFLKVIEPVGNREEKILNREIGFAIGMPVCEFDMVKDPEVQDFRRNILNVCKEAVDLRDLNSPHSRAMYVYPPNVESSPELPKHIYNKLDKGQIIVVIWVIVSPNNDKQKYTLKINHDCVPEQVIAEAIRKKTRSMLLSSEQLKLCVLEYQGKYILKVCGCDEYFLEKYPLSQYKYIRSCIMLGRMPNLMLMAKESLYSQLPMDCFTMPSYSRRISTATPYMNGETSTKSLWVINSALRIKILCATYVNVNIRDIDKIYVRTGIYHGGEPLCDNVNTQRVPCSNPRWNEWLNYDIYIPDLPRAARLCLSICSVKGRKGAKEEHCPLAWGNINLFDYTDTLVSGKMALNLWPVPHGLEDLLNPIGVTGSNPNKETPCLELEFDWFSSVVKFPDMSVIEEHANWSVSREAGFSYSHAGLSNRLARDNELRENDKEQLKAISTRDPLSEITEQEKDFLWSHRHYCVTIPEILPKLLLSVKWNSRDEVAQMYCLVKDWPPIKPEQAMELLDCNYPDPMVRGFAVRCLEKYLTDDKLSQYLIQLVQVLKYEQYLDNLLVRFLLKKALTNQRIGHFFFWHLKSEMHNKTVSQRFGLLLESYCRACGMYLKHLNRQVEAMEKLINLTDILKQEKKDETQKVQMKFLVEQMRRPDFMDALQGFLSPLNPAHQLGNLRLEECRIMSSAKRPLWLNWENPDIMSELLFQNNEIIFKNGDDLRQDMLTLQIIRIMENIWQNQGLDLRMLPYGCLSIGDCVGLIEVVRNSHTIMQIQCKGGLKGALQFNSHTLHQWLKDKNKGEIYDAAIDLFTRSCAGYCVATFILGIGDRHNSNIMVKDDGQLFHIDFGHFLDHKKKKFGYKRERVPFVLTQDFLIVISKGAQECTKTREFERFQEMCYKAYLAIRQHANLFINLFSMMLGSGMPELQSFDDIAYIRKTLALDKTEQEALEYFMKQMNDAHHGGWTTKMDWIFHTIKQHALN", "experiment": "Inhibition of PI3Kalpha (unknown origin) at 30 uM"}, "PBMC [14]": {"system": "PBMC", "experiment": "Antiinflammatory activity in human PBMC assessed as inhibition of LPS-induced IL-1beta release incubated for 15 mins prior to LPS-challenge measured after 24 hrs by HTRF assay", "assay_type": "functional, cell-based"}, "[15]": {"biological_target": "Phosphatidylinositol 4,5-bisphosphate 3-kinase catalytic subunit beta isoform (Homo sapiens) (UniProt P42338)", "experiment": "Inhibition of PI3Kbeta (unknown origin) at 30 uM"}, "Mus musculus [16]": {"system": "Mus musculus", "experiment": "Antiinflammatory activity in mouse assessed as inhibition of LPS-induced TNF-alpha production at 10 mg/kg, po administered 1 hr prior to LPS challenge measured after 1 hr", "assay_type": "functional"}, "Mus musculus [17]": {"system": "Mus musculus", "experiment": "Antiinflammatory activity in mouse assessed as inhibition of LPS-induced TNF-alpha production at 100 mg/kg, po administered 1 hr prior to LPS challenge measured after 1 hr", "assay_type": "functional, organism-based", "set-up": "dose 100 mg/kg"}, "[18]": {"biological_target": "Serine/threonine-protein kinase TBK1 (Homo sapiens) (UniProt Q9UHD2)", "experiment": "Inhibition of TBK1 (unknown origin) at 30 uM"}, "[19]": {"biological_target": "Dual specificity mitogen-activated protein kinase kinase 1 (Homo sapiens) (UniProt Q02750)", "sequence (Q02750 whole entry)": "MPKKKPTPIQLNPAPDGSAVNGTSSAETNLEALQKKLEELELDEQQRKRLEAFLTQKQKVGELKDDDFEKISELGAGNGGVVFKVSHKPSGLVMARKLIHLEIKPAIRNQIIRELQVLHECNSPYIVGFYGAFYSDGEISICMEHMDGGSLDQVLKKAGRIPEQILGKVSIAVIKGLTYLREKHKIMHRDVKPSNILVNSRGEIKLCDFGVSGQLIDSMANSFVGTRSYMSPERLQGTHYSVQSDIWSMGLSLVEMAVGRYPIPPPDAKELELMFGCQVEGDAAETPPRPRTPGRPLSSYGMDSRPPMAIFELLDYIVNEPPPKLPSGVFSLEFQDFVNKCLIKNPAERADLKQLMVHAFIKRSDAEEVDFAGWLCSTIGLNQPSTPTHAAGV", "experiment": "Inhibition of MEK1 (unknown origin) at 30 uM"}, "[20]": {"biological_target": "Inhibitor of nuclear factor kappa-B kinase subunit alpha (Homo sapiens) (UniProt O15111)", "sequence (O15111 whole entry)": "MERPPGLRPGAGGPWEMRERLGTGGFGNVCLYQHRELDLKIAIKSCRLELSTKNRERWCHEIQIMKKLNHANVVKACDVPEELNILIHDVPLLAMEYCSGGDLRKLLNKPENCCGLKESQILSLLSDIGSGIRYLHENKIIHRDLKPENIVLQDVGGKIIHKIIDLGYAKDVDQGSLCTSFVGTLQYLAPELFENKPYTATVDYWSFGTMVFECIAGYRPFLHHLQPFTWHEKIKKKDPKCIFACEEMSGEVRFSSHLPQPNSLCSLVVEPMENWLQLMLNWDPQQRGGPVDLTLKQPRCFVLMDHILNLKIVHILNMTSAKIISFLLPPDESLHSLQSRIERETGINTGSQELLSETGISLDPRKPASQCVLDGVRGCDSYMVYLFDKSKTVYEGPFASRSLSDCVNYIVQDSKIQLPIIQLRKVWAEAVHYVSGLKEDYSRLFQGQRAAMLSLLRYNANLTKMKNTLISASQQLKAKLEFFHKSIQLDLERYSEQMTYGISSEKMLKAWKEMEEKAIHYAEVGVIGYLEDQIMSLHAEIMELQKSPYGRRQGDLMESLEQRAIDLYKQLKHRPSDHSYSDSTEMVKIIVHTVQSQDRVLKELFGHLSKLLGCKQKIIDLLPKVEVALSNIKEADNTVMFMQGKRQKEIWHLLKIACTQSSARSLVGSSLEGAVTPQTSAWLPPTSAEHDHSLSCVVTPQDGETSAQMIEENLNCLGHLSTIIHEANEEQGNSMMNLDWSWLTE", "experiment": "Inhibition of IKKalpha (unknown origin) at 30 uM"}, "Mus musculus [21]": {"system": "Mus musculus", "experiment": "Antiinflammatory activity in mouse assessed as inhibition of LPS-induced IL-6 production at 10 mg/kg, po administered 1 hr prior to LPS challenge measured after 1 hr", "assay_type": "functional"}, "Mus musculus [22]": {"system": "Mus musculus", "experiment": "Antiinflammatory activity in po dosed mouse assessed as inhibition of LPS-induced TNF-alpha production administered 1 hr prior to LPS challenge measured after 1 hr", "assay_type": "functional, organism-based"}, "[23]": {"biological_target": "Mitogen-activated protein kinase 1 (Homo sapiens) (UniProt P28482)", "experiment": "Inhibition of ERK2 (unknown origin) at 30 uM"}, "Mus musculus [24]": {"system": "Mus musculus", "experiment": "Antiinflammatory activity in po dosed mouse assessed as inhibition of LPS-induced IL-6 production administered 1 hr prior to LPS challenge measured after 1 hr", "assay_type": "functional, organism-based"}, "[25]": {"biological_target": "Dual specificity mitogen-activated protein kinase kinase 6 (Homo sapiens) (UniProt P52564)", "sequence (P52564 whole entry)": "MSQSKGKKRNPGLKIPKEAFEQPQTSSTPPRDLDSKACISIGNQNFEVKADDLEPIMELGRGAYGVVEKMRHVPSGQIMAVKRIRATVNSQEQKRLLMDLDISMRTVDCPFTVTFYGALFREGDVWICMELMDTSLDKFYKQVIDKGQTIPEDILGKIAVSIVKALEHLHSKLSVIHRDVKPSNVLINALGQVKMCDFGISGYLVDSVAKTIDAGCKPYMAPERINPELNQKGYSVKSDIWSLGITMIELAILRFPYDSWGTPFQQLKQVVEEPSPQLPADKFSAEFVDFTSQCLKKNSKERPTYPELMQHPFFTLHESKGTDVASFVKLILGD", "experiment": "Inhibition of MKK6 (unknown origin) at 30 uM"}, "[26]": {"experiment": "AUC (0 to 24 hrs) in mouse at 2 mg/kg, iv", "assay_type": "ADME, organism-based", "set-up": "time < 24 hr, dose 2 mg/kg, route intravenous", "details": "plasma"}, "[27]": {"biological_target": "Mitogen-activated protein kinase 13 (Homo sapiens) (UniProt O15264)", "experiment": "Inhibition of p38delta (unknown origin) at 30 uM"}, "[28]": {"biological_target": "Prostaglandin G/H synthase 2 (Homo sapiens) (UniProt P35354)", "experiment": "Inhibition of COX2 (unknown origin) up to 25 uM"}, "[29]": {"biological_target": "Mitogen-activated protein kinase 3 (Homo sapiens) (UniProt P27361)", "experiment": "Inhibition of ERK1 (unknown origin) at 30 uM"}, "[30]": {"biological_target": "Phosphatidylinositol 4,5-bisphosphate 3-kinase catalytic subunit delta isoform (Homo sapiens) (UniProt O00329)", "experiment": "Inhibition of PI3Kdelta (unknown origin) at 30 uM"}, "PBMC [31]": {"system": "PBMC", "experiment": "Cytotoxicity against LPS-stimulated human PBMC assessed as growth inhibition by MTT assay", "assay_type": "cell-based"}, "Mus musculus [32]": {"system": "Mus musculus", "experiment": "Antiinflammatory activity in collagen-induced arthritis mouse model at 30 mg/kg, po qd administered every other day for 20 days relative to vehicle-treated control", "assay_type": "functional", "details": "480 h"}, "[33]": {"experiment": "Oral bioavailability in mouse at 4 mg/kg", "assay_type": "ADME, organism-based", "details": "in vivo"}, "[34]": {"biological_target": "Mitogen-activated protein kinase kinase kinase 8 (Homo sapiens) (UniProt P41279)", "experiment": "Inhibition of MAP3K8 (unknown origin) at 30 uM"}, "[35]": {"biological_target": "Protein kinase C alpha type (Homo sapiens) (UniProt P17252)", "experiment": "Inhibition of PKCalpha (unknown origin) at 30 uM"}, "[36]": {"biological_target": "Mitogen-activated protein kinase 9 (Homo sapiens) (UniProt P45984)", "experiment": "Inhibition of JNK2 (unknown origin) at 30 uM"}, "Mus musculus [37]": {"system": "Mus musculus", "experiment": "Antiinflammatory activity in mouse assessed as inhibition of LPS-induced IL-6 production at 100 mg/kg, po administered 1 hr prior to LPS challenge measured after 1 hr", "assay_type": "functional, organism-based", "set-up": "dose 100 mg/kg"}, "[38]": {"biological_target": "Rho-associated protein kinase 2 (Homo sapiens) (UniProt O75116)", "experiment": "Inhibition of ROCK2 (unknown origin) at 30 uM"}, "[39]": {"biological_target": "Mitogen-activated protein kinase kinase kinase 7 (Homo sapiens) (UniProt O43318)", "sequence (O43318 whole entry)": "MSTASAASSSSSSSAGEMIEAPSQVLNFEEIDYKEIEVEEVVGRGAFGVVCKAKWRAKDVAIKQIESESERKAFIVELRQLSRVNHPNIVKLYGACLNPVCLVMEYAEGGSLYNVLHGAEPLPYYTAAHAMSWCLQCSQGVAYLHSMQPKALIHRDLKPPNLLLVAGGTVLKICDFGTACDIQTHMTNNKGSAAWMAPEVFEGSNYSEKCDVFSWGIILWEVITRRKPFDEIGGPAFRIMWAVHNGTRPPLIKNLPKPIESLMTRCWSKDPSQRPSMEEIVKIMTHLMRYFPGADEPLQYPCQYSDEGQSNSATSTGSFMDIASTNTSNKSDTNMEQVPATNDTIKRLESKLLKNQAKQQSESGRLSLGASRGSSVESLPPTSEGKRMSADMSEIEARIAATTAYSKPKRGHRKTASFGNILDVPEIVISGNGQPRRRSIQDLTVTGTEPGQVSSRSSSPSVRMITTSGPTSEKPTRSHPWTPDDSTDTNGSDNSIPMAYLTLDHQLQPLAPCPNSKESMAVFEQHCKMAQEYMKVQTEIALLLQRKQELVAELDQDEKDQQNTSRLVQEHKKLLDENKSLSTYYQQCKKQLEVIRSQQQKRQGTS", "experiment": "Inhibition of TAK1 (unknown origin) at 30 uM"}, "[40]": {"biological_target": "Mitogen-activated protein kinase 10 (Homo sapiens) (UniProt P53779)", "sequence (P53779 whole entry)": "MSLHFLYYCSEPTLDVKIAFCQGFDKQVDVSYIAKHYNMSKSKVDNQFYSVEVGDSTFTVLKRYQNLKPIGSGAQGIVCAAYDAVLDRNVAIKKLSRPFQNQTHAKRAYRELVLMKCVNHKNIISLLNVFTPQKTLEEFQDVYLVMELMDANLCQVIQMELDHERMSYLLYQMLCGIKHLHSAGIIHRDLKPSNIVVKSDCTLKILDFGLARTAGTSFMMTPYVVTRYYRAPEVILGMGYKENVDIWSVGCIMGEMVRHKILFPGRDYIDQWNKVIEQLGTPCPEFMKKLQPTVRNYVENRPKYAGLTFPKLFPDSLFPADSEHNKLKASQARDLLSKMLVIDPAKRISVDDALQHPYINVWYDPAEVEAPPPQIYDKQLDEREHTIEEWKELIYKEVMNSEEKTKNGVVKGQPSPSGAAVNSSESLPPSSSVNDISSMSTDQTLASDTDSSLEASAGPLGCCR", "experiment": "Inhibition of JNK3 (unknown origin) at 30 uM"}, "PBMC [41]": {"system": "PBMC", "experiment": "Antiinflammatory activity in human PBMC assessed as inhibition of LPS-induced IL-6 release incubated for 15 mins prior to LPS-challenge measured after 24 hrs by HTRF assay", "assay_type": "functional, cell-based"}, "[42]": {"biological_target": "Dual specificity mitogen-activated protein kinase kinase 2 (Homo sapiens) (UniProt P36507)", "sequence (P36507 whole entry)": "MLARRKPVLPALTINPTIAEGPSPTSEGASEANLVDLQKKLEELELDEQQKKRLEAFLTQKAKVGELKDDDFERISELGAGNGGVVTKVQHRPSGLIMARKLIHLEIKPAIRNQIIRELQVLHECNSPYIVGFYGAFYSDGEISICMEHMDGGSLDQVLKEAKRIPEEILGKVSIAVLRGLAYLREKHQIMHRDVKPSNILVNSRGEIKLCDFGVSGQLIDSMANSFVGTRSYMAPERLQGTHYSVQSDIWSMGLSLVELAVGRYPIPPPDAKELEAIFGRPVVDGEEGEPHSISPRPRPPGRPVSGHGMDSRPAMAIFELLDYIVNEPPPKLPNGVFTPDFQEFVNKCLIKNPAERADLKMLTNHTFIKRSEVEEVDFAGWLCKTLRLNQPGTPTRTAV", "experiment": "Inhibition of MEK2 (unknown origin) at 30 uM"}, "[43]": {"experiment": "Volume of distribution at steady state in mouse at 2 mg/kg, iv", "assay_type": "ADME, organism-based", "set-up": "dose 2 mg/kg, route intravenous", "details": "in vivo, read-out: Vdss"}}, "note": "Active and inactive are the calls of the source. The rule behind the calls is not given here."}
{"smiles": "O=C(Nc1ccc2c(c1)B(O)OC2)c1c(C(F)(F)F)ccc(Cl)c1F", "values": [{"measurement": "inhibition", "setting": "[1]", "value": "inactive"}, {"measurement": "inhibition", "setting": "[2]", "value": "inactive"}, {"measurement": "inhibition", "setting": "[3]", "value": "inactive"}, {"measurement": "inhibition in vivo at 30 mg/kg", "setting": "Mus musculus [4]", "value": 80, "unit": "%"}, {"measurement": "AUC(0-t) at 24 h", "setting": "[5]", "value": 70100, "unit": "ng·h/mL"}, {"measurement": "inhibition", "setting": "[6]", "value": "inactive"}, {"measurement": "inhibition", "setting": "[7]", "value": "inactive"}, {"measurement": "inhibition in vivo at 30 mg/kg", "setting": "Mus musculus [8]", "value": 95, "unit": "%"}, {"measurement": "Activity", "setting": "Mus musculus [9]", "value": "Non-toxic"}, {"measurement": "inhibition", "setting": "[10]", "value": "inactive"}, {"measurement": "clearance", "setting": "[11]", "value": 0.683, "unit": "mL/min/kg"}, {"measurement": "inhibition", "setting": "[12]", "value": "inactive"}, {"measurement": "inhibition", "setting": "[13]", "value": "inactive"}, {"measurement": "IC50", "setting": "PBMC [14]", "value": 190, "unit": "nM"}, {"measurement": "inhibition", "setting": "[15]", "value": "inactive"}, {"measurement": "inhibition in vivo at 10 mg/kg", "setting": "Mus musculus [16]", "value": 60, "unit": "%"}, {"measurement": "inhibition", "setting": "Mus musculus [17]", "value": "Active"}, {"measurement": "inhibition", "setting": "[18]", "value": "inactive"}, {"measurement": "inhibition", "setting": "[19]", "value": "inactive"}, {"measurement": "inhibition", "setting": "[20]", "value": "inactive"}, {"measurement": "inhibition in vivo at 10 mg/kg", "setting": "Mus musculus [21]", "value": 75, "unit": "%"}, {"measurement": "inhibition", "setting": "Mus musculus [22]", "value": "Dose-dependent effect"}, {"measurement": "inhibition", "setting": "[23]", "value": "inactive"}, {"measurement": "inhibition", "setting": "Mus musculus [24]", "value": "Dose-dependent effect"}, {"measurement": "inhibition", "setting": "[25]", "value": "inactive"}, {"measurement": "AUC(0-t) at 24 h", "setting": "[26]", "value": 43400, "unit": "ng·h/mL"}, {"measurement": "inhibition", "setting": "[27]", "value": "inactive"}, {"measurement": "inhibition", "setting": "[28]", "value": "inactive"}, {"measurement": "inhibition", "setting": "[29]", "value": "inactive"}, {"measurement": "inhibition", "setting": "[30]", "value": "inactive"}, {"measurement": "IC50", "setting": "PBMC [31]", "value": "> 100000", "unit": "nM"}, {"measurement": "inhibition in vivo at 30 mg/kg", "setting": "Mus musculus [32]", "value": 68, "unit": "%"}, {"measurement": "bioavailability", "setting": "[33]", "value": 71, "unit": "%"}, {"measurement": "inhibition", "setting": "[34]", "value": "inactive"}, {"measurement": "inhibition", "setting": "[35]", "value": 62, "unit": "%"}, {"measurement": "inhibition", "setting": "[36]", "value": "inactive"}, {"measurement": "inhibition", "setting": "Mus musculus [37]", "value": "Active"}, {"measurement": "inhibition", "setting": "[38]", "value": "inactive"}, {"measurement": "inhibition", "setting": "[39]", "value": "inactive"}, {"measurement": "inhibition", "setting": "[40]", "value": "inactive"}, {"measurement": "IC50", "setting": "PBMC [41]", "value": 320, "unit": "nM"}, {"measurement": "inhibition", "setting": "[42]", "value": "inactive"}, {"measurement": "Vd", "setting": "[43]", "value": 0.41, "unit": "L/kg"}]}
